Test results from patent publication US7589080B2, “β-cyclodextrin compositions, and use to prevent transmission of sexually transmitted diseases” (priority 2000, dated 2009).

Legend:
[1] = test system: LFA-1 binding to ICAM-1 triggered through CXCR4; assay: SDF-1α-induced cell adhesion assay; type: cell-based; settings: Jurkat cells treated with 20 mM
Method: Cell adhesion assays were carried out essentially as previously described (Liao et al., supra, 2000). The wells of 96 well plates were coated with recombinant ICAM-Ig and blocked as described. Jurkat cells were labeled with horseradish peroxidase (HRP) and treated with either 20 mM 2-OH-βCD or medium alone as described above. The cells were then washed and resuspended in cRPMI at a density of 2×10^6/ml. One hundred Tl of cells were added to the wells along with cRPMI alone or medium containing 10 ng/ml of SDF-1α. The wells were incubated at 37° C. for various times before washing to remove unbound cells. Bound cells were lysed and HRP measured as described previously. A standard curve was generated by from known numbers of labeled cells lysed and quantitated by measuring HRP.
Loss of CXCR function in regulating LFA-1 could also explain the lower binding of HIV-1 to βCD-treated cells observed previously (Liao et al., supra, 2000; Orentas and Hildreth, supra, 1993). […] The ability of βCD treatment of cells to affect control of LFA-1 function by CXCR4 also was examined. Jurkat cells were treated with 2-OH-βCD or medium alone, then were added to the wells of culture plates coated with soluble recombinant ICAM-Ig. SDF-1, a CXCR4-specific chemokine that triggers LFA-1 function, was added to trigger binding of LFA-1 to ICAM-1. […]

[2] = test system: HSV-2 strain G; assay: HSV mouse vaginal challenge model; type: in vivo, CD-1 mice; settings: HSV-2 preincubated with 3%, intravaginal 1×10^4 TCID50; p=0.022
Method: The ability of 2-OH-βCD to reduce the infectiousness of HIV-1 (Examples 2 and 3) led to an investigation as to the general applicability of βCDs to prevent the transmission of other sexually transmitted enveloped viruses. A well characterized HSV mouse vaginal challenge model was used to examine the effect of 2-OH-βCD on HSV-2 infection (Sherwood et al., supra, 1996). Adult female CD-1 mice (Charles River Breeding Laboratories; Wilmington Mass.) were injected subcutaneously with Depo-Provera® progestin (2 mg) to increase their sensitivity, then one week later the mice were inoculated intravaginally with 1×10^4 TCID50 of cell-free HSV-2 strain G (10 ID50) using a WIRETROL capillary micropipette (Drummond Scientific; Broomall Pa.). Infection was confirmed by lavage culture on newborn foreskin fibroblast cells (Biowhitaker). Prior to inoculation, HSV-2 was preincubated either with 3% 2-OH-βCD or with buffer.

[3] = test system: HIV-1RF; assay: Free-virus mediated syncytium assay (fusion from without); type: cell-based; settings: MT2, SupT1, PM1; HIV-1RF >500 ng/ml p24, 3 hr at 37° C
Method: Syncytium assays were carried out essentially as previously described (Hildreth and Orentas, supra, 1989). Briefly, cell lines or PHA blasts were treated with 20 mM 2-OH-βCD in RPMI 1640 or medium alone for 1 hr at 37° C. before washing twice with PBS. The treated cells were then mixed with HIV-1 infected cells, each at density of 2×10^6/ml, in cRPMI and incubated at 37° C. Syncytia were scored and photographed 3 to 6 hr after mixing. For free-virus mediated syncytium assays (“fusion from without”), HIV-1RF from infected PM1 culture supernatants were clarified by 0.45 Tm filtration (p24 concentration greater than 500 ng/ml). 2-OH-βCD-treated and non-treated cell lines were added to the virus preparations and incubated at 37° C. for 3 hr before counting syncytia.
The effect of cholesterol depletion on virus-cell fusion (“fusion from without”) was also determined.

[4] = test system: CD4; assay: Flow cytometry of CD4 surface expression; type: cell-based
Method: Flow cytometry was performed as previously described (Orentas and Hildreth, supra, 1993). Briefly, 2×10^5 2-OH-βCD treated or untreated cells in 100 μl PBS containing 5% normal goat serum (NGS) were added to 100 μl of MAb (1-5 μg) and incubated 30 min on ice. In comparative experiments we prefixed the cells with 2% paraformaldehyde in PBS immediately after 2-OH-βCD treatment. Cells were washed with PBS, resuspended in 100 μl of PBS, 5% NGS containing 2 Tg of FITC conjugated-goat anti-mouse IgG (FITC-GAM) and incubated 1 h on ice. Cells were then washed with PBS and fixed with 2% paraformaldehyde followed by analysis on an EPICS Profile II flow cytometer.
Cholesterol depletion also promoted CXCR4 down-modulation by MAb-induced internalization. A possible explanation for the inhibition of syncytium formation by cholesterol depletion as described above is that CD4, CRs, or both are lost from the cell surface, for example, by extrusion from the membrane in vesicles after loss of cholesterol, or they could be internalized. To explore these possibilities, βCD treated cells were examined for expression of HIV receptors by flow cytometry. […] In contrast, cell surface expression of CXCR4 was reduced by 50% or more in all of the cells after 2-OH-βCD treatment (Table 1).
In order to determine whether the loss of CXCR4 expression was due to MAb-induced internalization, cells were fixed with 2% paraformaldehyde in PBS immediately after 2-OH-βCD treatment and before staining with MAbs for flow cytometry.

[5] = test system: total cellular cholesterol; assay: Cellular cholesterol measurement (cholesterol oxidase fluorimetric assay); type: cell-based; settings: 10 to 20 mM for 1 hr at 37° C, then washing
Method: Cellular cholesterol was measured with a sensitive cholesterol oxidase-based fluorimetric assay (Amplex Red Cholesterol Kit) from Molecular Probes (Eugene Oreg.). Cholesterol content of cells was normalized to total cellular protein.
The role of lipid rafts in the HIV-1 fusion process was examined by treating CD4+HIV-susceptible target cells with 2-OH-βCD to deplete membrane cholesterol and disperse lipid rafts.

Substance: 2-hydroxypropyl-β-cyclodextrin [2-OH-βCD]
- Binding of Jurkat cells to ICAM-Ig after exposure to SDF-1 [1]: no binding to ICAM-Ig
- Mice that became infected [2]: 5 of 10
- Syncytium formation on exposure to free virus [3]: no syncytium formation
- CD4 (MCF) ([4]; H9, 20 mM, fixed with 2% paraformaldehyde immediately after treatment): 50 MCF
- CD4 (MCF) ([4]; H9 cells, 20 mM, not fixed before staining): 20.9 MCF
- CD4 (MCF) ([4]; MT2 cells, 20 mM, not fixed before staining): 62.2 MCF
- CD4 expression after treatment ([4]; PHA blasts or any of the cell lines tested): did not change
- CD4 (MCF) ([4]; PM1, 20 mM, fixed with 2% paraformaldehyde immediately after treatment): 129 MCF
- CD4 (MCF) ([4]; PM1 cells, 20 mM, not fixed before staining): 85.9 MCF
- CD4 (MCF) ([4]; SupT1, 20 mM, fixed with 2% paraformaldehyde immediately after treatment): 213 MCF
- CD4 (MCF) ([4]; SupT1 cells, 20 mM, not fixed before staining): 188.3 MCF
- CD4 expression on the cell surface ([4]; cells fixed immediately after treatment, before MAb staining): remained unchanged
- Depletion of total cellular cholesterol [5]: greater than 70%
